Data reported in ChEMBL document CHEMBL4665802, “Design, Synthesis, and Structure-Activity Relationships of Indoline-Based Kelch-like ECH-Associated Protein 1-Nuclear Factor (Erythroid-Derived 2)-Like 2 (Keap1-Nrf2) Protein-Protein Interaction Inhibitors” (J Med Chem, 2020).
The source made the active and inactive calls. The rule behind the calls is not given here.

Key:
H9c2 [1] = test: Upregulation of Nrf2 protein levels in rat H9c2 cells at 10 uM incubated up to 24 hrs by Western blot; format: functional, cell-based; details: time hrs <=24
CYP2D6 = CYP2D6 (Homo sapiens, UniProt P10635); test: Inhibition of CYP2D6 (unknown origin) at 10 uM using promethazine as substrate preincubated for 5 mins followed by NADPH addition and measured after 20 mins by LC-MS/MS analysis relative to control; format: ADME; details: probe promethazine
[2] = target: T1, KEAP1/NRF2 (Rattus norvegicus) (UniProt O54968+P57790); test: Inhibition of Keap1-Nrf2 protein-protein interaction in rat H9c2 cells assessed as upregulation of NQO1 mRNA expression at 10 uM incubated for 4 to 24 hrs by Trizol reagent based qRT-PCR analysis; format: cell-based; details: time hrs 4-24
[3] = target: T1, KEAP1/NRF2 (Rattus norvegicus); test: Inhibition of Keap1-Nrf2 protein-protein interaction in rat H9c2 cells assessed as upregulation of GCLM expression at 10 uM incubated up to 24 hrs by Western blot; format: cell-based; details: time hrs <=24
Mus musculus [4] = test: Antiinflammatory activity in LPS-stimulated sepsis in C57BL/6 mouse assessed as decrease in TNFalpha levels at 10 mg/kg, ip qd administered for 3 days prior to LPS stimulation and measured after 12 hrs by ELISA; format: functional, organism-based; details: time 3.5 day
Mus musculus [5] = test: Upregulation of Nrf2 protein levels in LPS-stimulated C57BL/6 mouse model at 10 to 40 mg/kg, ip qd administered for 3 days prior to LPS stimulation and measured after 12 hrs by Western blot analysis; format: functional, organism-based; details: dose mg/kg 10-40, time 3.5 day
Mus musculus [6] = test: Cardioprotective activity in LPS-stimulated sepsis in C57BL/6 mouse assessed as reduction in histological score at 10 mg/kg, ip qd administered for 3 days prior to LPS stimulation and measured after 12 hrs by hematoxylin and eosin staining based microscopy; format: functional, organism-based; details: time 3.5 day
[7] = Permeability of the compound at pH 7.4 incubated for 4 hrs by PAMPA; format: ADME; details: read-out: permeability
H9c2 [8] = test: Upregulation of Nrf2 mRNA expression in rat H9c2 cells incubated for 12 hrs by Trizol reagent based qRT-PCR analysis; format: functional, cell-based; details: dose microM 0.1-10, time 12.0 hrs
[9] = Metabolic stability in human liver microsome assessed as half-life at 1 uM preincubated for 5 mins followed by NADPH addition and measured after 45 mins by LC-MS/MS analysis; format: ADME; details: liver microsomes
H9c2 [10] = test: Upregulation of Nrf2 mRNA expression in rat H9c2 cells at 10 uM incubated for 4 to 24 hrs by Trizol reagent based qRT-PCR analysis; format: functional, cell-based; details: time hrs 4-24
Mus musculus [11] = test: Antioxidant activity against LPS-induced injury in C57BL/6 mouse assessed as increase in GSH/GSSG ratio at 10 mg/kg, ip qd administered for 3 days prior to LPS stimulation and measured after 12 hrs; format: functional, organism-based; details: dose mg/kg 10-40, time 3.5 day
CYP1A2 = target: T2, CYP1A2 (Homo sapiens, UniProt P05177); test: Inhibition of CYP1A2 (unknown origin) at 10 uM using 7-ethoxycoumarin as substrate preincubated for 5 mins followed by NADPH addition and measured after 20 mins by LC-MS/MS analysis relative to control; format: ADME; details: probe 7-ethoxycoumarin
T2 sequence (P05177 whole entry): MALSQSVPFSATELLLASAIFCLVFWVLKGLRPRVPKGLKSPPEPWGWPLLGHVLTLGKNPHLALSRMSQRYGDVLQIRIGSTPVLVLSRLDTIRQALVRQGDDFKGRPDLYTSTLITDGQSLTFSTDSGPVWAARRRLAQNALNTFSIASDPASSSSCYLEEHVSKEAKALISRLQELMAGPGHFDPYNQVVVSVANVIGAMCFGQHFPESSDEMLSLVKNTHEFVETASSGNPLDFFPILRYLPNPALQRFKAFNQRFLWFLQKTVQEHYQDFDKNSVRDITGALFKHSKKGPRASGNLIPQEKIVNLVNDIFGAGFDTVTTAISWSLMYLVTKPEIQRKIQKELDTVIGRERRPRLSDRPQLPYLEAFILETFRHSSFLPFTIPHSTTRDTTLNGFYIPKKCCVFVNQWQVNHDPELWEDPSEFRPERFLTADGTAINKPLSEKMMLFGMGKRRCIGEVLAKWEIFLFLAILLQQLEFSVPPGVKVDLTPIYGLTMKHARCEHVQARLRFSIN

H9c2 [12] = test: Antioxidant activity against LPS-induced injury in rat H9c2 cells assessed as decrease in ROS level at 10 uM pretreated for 12 hrs followed by LPS addition measured after 12 hrs by H2DCFDA probe based flow cytometry; format: functional, cell-based; details: time 24.0 hrs
[13] = target: T1, KEAP1/NRF2 (Rattus norvegicus); test: Inhibition of Keap1-Nrf2 protein-protein interaction in rat H9c2 cells assessed as upregulation of GCLM mRNA expression incubated for 12 hrs by Trizol reagent based qRT-PCR analysis; format: cell-based; details: dose microM 0.1-10, time 12.0 hrs
H9c2 [14] = test: Cytoprotective activity against LPS-induced sepsis in rat H9c2 cells assessed as increase in cell viability pretreated with compound for 12 hrs followed by LPS addition measured after 12 hrs by MTT assay; format: functional, cell-based; details: dose microM 0.1-10, time 24.0 hrs
H9c2 [15] = test: Antioxidant activity against LPS-induced injury in rat H9c2 cells assessed as increase in GSH/GSSG ratio at 0.1 to 10 uM pretreated for 12 hrs followed by LPS addition measured after 12 hrs; format: functional, cell-based; details: dose microM 0.1-10, time 24.0 hrs
[16] = target: T1, KEAP1/NRF2 (Rattus norvegicus); test: Inhibition of Keap1-Nrf2 protein-protein interaction in rat H9c2 cells assessed as upregulation of NQO1 expression incubated for 12 hrs by Western blot analysis; format: cell-based; details: dose microM 0.1-10, time 12.0 hrs
H9c2 [17] = test: Antiinflammatory activity against LPS-induced sepsis in rat H9c2 cells assessed as decrease in secretion of IL-6 at 1 to 10 uM pretreated for 12 hrs followed by LPS addition measured after 12 hrs by sandwich ELISA; format: functional, cell-based; details: dose microM 1-10, time 24.0 hrs
[18] = target: T1, KEAP1/NRF2 (Rattus norvegicus); test: Inhibition of Keap1-Nrf2 protein-protein interaction in rat H9c2 cells assessed as upregulation of NQO1 expression at 10 uM incubated up to 24 hrs by Western blot; format: cell-based; details: time hrs <=24
Mus musculus [19] = test: Antiinflammatory activity in LPS-stimulated sepsis in C57BL/6 mouse assessed as decrease in IL-1beta levels at 10 mg/kg, ip qd administered for 3 days prior to LPS stimulation and measured after 12 hrs by ELISA; format: functional, organism-based; details: time 3.5 day
Mus musculus [20] = test: Upregulation of GCLM expression in LPS-stimulated C57BL/6 mouse model of sepsis at 10 to 40 mg/kg, ip qd administered for 3 days prior to LPS stimulation and measured after 12 hrs by Western blot analysis; format: functional, organism-based; details: dose mg/kg 10-40, time 3.5 day
[21] = Metabolic stability in human liver microsome assessed as parent compound remaining at 1 uM preincubated for 5 mins followed by NADPH addition and measured after 45 mins by LC-MS/MS analysis; format: ADME; details: liver microsomes, time 50 min, read-out: Stabilty
[22] = Apparent clearance in rat at 5 mg/kg, iv by LC-MS/MS analysis; format: ADME, organism-based; details: in vivo
[23] = MRT (0 to infinity) in rat at 5 mg/kg, iv by LC-MS/MS analysis; format: ADME, organism-based; details: in vivo
[24] = Cmax in rat at 5 mg/kg, iv by LC-MS/MS analysis; format: ADME, organism-based; set-up: route intravenous, dose 5 mg/kg; details: in vivo
[25] = target: T1, KEAP1/NRF2 (Rattus norvegicus); test: Inhibition of Keap1-Nrf2 protein-protein interaction in rat H9c2 cells assessed as upregulation of GCLM mRNA expression at 10 uM incubated for 4 to 24 hrs by Trizol reagent based qRT-PCR analysis; format: cell-based; details: time hrs 4-24

Chain of CYP2D6 (P10635 whole entry): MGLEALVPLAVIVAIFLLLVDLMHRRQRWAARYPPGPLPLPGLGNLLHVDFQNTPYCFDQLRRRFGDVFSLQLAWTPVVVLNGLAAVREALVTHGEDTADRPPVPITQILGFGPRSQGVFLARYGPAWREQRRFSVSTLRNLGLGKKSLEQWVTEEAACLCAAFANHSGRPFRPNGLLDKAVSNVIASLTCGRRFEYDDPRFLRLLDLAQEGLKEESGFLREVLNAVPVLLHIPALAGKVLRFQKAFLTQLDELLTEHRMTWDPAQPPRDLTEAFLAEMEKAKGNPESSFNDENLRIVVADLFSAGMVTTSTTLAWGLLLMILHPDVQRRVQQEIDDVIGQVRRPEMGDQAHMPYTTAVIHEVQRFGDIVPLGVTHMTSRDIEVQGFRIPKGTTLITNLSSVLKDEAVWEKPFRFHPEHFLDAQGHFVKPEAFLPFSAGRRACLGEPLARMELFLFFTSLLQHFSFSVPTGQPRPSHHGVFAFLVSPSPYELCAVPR

Compound: COc1ccc(S(=O)(=O)NC(=O)CN(c2cccc3c2CCN3C(C(=O)NS(=O)(=O)c2ccc(C)cc2OC)c2cccc(OC)c2)S(=O)(=O)c2ccc(OC)cc2)cc1 (configuration not stated)
- Activity (H9c2 [1]): Active
- inhibition at 20 min, 10 µM (CYP2D6): 19.9%
- inhibition [2]: Active
- inhibition [3]: Active
- Activity (Mus musculus [4]): Active
- Activity (Mus musculus [5]): Active
- Activity (Mus musculus [6]): Active
- Papp at 4 h [7]: 5.27 ×10⁻⁶ cm/s
- Activity (H9c2 [8]): Dose-dependent effect
- half-life at 1 µM [9]: 2.52 h
- Activity (H9c2 [10]): Active
- Activity (Mus musculus [11]): Active
- inhibition at 20 min, 10 µM (CYP1A2): 8.75%
- Activity (H9c2 [12]): Active
- inhibition [13]: Dose-dependent effect
- Activity (H9c2 [14]): Dose-dependent effect
- Activity (H9c2 [15]): Active
- inhibition [16]: Dose-dependent effect
- Activity (H9c2 [17]): Active
- inhibition [18]: Active
- Activity (Mus musculus [19]): Active
- Activity (Mus musculus [20]): Active
- remaining at 0.75 h, 1 µM [21]: 74.4%
- clearance [22]: 1.83 mL/min/kg
- MRT inf [23]: 1.1 h
- Cmax [24]: 78.2 µg/mL
- inhibition [25]: Active
